Data on 18 compounds can be found in patent US20230257372A1 (CHONG KUN DANG PHARMACEUTICAL CORP., priority 2020, published 2023).

Assay [1] addresses T1, human recombinant HDAC1 (Homo sapiens, UniProt Q13547).
T1 construct: purchased Enzo Life Science, Inc. BML-SE456
As to the kind of experiment: HDAC1 enzyme activity inhibition (HDAC Fluorimetric Drug Discovery Kit). The assay is classed as biochemical. The note with it: read-out: HDAC1. As for the experimental part:
(§1) An experiment was conducted to identify the selectivity of the compound represented by formula I of the present invention to HDAC6 through an experiment on HDAC1 and HDAC6 enzyme activity inhibition.
(§2) A 5-fold dilution of the compound was divided into a 96-well plate, after which […] of the enzyme and 10 μM of the substrate were inserted into each well and subjected to reaction at 30° C. for 60 minutes, such that Fluor de Lys® Developer II (BML-KI176) was inserted thereinto and subjected to reaction for 30 minutes and finished.

The target of assay [2] is T2, human recombinant HDAC6 (Homo sapiens, UniProt Q9UBN7).
T2 construct: purchased Calbiochem Inc. 382180
T2 sequence (Q9UBN7 1-1215): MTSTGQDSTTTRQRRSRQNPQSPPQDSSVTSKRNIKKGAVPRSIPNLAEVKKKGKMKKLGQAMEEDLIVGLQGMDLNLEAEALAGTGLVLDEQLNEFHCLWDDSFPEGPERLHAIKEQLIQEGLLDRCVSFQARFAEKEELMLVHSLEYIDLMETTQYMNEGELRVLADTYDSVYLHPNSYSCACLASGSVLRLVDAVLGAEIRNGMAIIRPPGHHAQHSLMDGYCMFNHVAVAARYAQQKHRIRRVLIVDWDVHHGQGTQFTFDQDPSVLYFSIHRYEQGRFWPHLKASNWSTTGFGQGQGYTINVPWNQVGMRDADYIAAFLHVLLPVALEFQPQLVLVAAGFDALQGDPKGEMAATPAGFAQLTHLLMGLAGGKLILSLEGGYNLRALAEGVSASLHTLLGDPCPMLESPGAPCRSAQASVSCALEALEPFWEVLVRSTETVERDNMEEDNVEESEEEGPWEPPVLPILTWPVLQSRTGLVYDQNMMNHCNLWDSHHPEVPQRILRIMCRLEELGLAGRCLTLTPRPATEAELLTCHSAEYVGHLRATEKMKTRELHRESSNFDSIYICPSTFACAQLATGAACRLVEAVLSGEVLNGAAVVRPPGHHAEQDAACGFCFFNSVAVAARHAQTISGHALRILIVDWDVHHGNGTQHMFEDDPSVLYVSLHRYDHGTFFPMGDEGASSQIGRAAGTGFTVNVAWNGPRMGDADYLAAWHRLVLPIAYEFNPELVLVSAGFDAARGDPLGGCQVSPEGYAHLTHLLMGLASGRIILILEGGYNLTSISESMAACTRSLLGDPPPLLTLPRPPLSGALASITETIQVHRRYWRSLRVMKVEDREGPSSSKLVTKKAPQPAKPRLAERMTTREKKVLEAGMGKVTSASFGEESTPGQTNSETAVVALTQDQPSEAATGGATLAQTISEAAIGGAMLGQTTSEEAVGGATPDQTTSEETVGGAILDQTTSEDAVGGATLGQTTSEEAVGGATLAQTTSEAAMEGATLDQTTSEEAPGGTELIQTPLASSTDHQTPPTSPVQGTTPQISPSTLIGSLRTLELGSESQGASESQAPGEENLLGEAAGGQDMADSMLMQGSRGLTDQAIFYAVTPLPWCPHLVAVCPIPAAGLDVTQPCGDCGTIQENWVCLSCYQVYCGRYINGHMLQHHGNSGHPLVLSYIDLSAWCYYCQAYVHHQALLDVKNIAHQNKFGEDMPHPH
Description: HDAC6 enzyme activity inhibition (HDAC Fluorimetric Drug Discovery Kit). The format is biochemical. As for the experimental part:
as §1, §2

Setting [3] is: human recombinant HDAC1, IC50 calculated with GraphPad Prism.
The mark [4] stands for this setting: human recombinant HDAC6, IC50 calculated with GraphPad Prism.
The mark [5] stands for this setting: human recombinant HDAC1, Fluor de Lys substrate, 30° C. 60 minutes.
Setting [6] is: human recombinant HDAC6, same protocol as HDAC1.

Read-outs that look alike come from different tables or passages of the source.

T1 sequence (Q13547 whole entry): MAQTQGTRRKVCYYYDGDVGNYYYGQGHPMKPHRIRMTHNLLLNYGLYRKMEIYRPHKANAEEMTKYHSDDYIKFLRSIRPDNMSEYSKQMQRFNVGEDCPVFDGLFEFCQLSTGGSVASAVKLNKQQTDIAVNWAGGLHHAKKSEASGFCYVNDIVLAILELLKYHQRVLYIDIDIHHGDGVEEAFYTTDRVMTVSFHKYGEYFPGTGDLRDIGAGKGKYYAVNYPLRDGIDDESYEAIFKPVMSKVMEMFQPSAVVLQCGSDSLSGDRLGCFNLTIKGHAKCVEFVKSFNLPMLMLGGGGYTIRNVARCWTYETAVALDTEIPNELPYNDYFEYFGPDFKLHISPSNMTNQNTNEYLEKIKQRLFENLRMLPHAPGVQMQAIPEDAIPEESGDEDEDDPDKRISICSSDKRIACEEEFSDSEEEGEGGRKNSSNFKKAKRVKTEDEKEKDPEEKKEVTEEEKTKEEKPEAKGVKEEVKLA

Turning to `Fc1cc(-c2nnc(C(F)F)o2)ccc1Cn1cc(-c2cccc(CN3CCC3)c2)nn1` [Compound 4402, 2-(4-((4-(3-(azetidin-1-ylmethyl)phenyl)-1H-1,2,3-triazol-1-yl)methyl)-3-fluorophenyl)-5-(difluoromethyl)-1,3,4-oxadiazole], the IC50 in assay [1] (setting [3]) is above 50000 nM; in assay [2] (setting [4]) it was 73.8 nM. In addition, the “HDAC6 selectivity (fold)” value in assay [2] (HDAC1 IC50 / HDAC6 IC50) is 677 fold.
For `CC(C)N1CCN(c2cccc(-c3cn(Cc4ncc(-c5nnc(C(F)F)o5)cc4F)nn3)c2)CC1` [Compound 18926], the IC50 in assay [1] (setting [5]) is above 50000 nM; in assay [2] (setting [6]) it was 63.9 nM. Also, the “HDAC6 selectivity (fold)” value in assay [2] (HDAC6 over HDAC1) is recorded as 782 fold.
With `Fc1cc(-c2nnc(C(F)F)o2)ccc1Cn1cc(C2(F)COC2)nn1` [Compound 4282, 2-(difluoromethyl)-5-(3-fluoro-4-((4-(3-fluorooxetan-3-yl)-1H-1,2,3-triazol-1-yl)methyl)phenyl)-1,3,4-oxadiazole], the IC50 was above 50000 nM in assay [1] (setting [3]) and 238 nM in assay [2] (setting [4]). Besides, the “HDAC6 selectivity (fold)” value in assay [2] (HDAC1 IC50 / HDAC6 IC50) is 209 fold.
Regarding `Fc1cc(-c2nnc(C(F)F)o2)ccc1Cn1cc(-c2ccc(CN3CC[C@@H](F)C3)cc2)nn1` [Compound 4607, (R)-2-(difluoromethyl)-5-(3-fluoro-4-((4-(4-((3-fluoropyrrolidin-1-yl)methyl)phenyl)-1H-1,2,3-triazol-1-yl)methyl)phenyl)-1,3,4-oxadiazole], the IC50 was above 50000 nM in assay [1] (setting [5]) and 19.9 nM in assay [2] (setting [6]). Besides, in assay [2] (HDAC6 over HDAC1), the “HDAC6 selectivity (fold)” value is given as 2512 fold.
For `C[C@@H]1CN(c2cccc(-c3cn(Cc4ccc(-c5nnc(C(F)F)o5)cc4F)nn3)c2)C[C@H](C)N1` [Compound 4439, 2-(difluoromethyl)-5-(4-((4-(3-((3R,5S)-3,5-dimethylpiperazin-1-yl)phenyl)-1H-1,2,3-triazol-1-yl)methyl)-3-fluorophenyl)-1,3,4-oxadiazole], the IC50 in assay [1] (setting [3]) is above 50000 nM; in assay [2] (setting [4]), 27.3 nM. Besides, in assay [2] (HDAC1 IC50 / HDAC6 IC50), the “HDAC6 selectivity (fold)” value came to 1831 fold.
Turning to `FC(F)c1cccc(-c2cn(Cc3ccc(-c4nnc(C(F)F)o4)cn3)nn2)c1` [Compound 4489, 2-(difluoromethyl)-5-(6-((4-(3-(difluoromethyl)phenyl)-1H-1,2,3-triazol-1-yl)methyl)pyridin-3-yl)-1,3,4-oxadiazole], the values for the IC50 in assay [1] (setting [3]) and in assay [2] (setting [4]) were above 50000 nM and 14.7 nM, respectively. Moreover, the “HDAC6 selectivity (fold)” value in assay [2] (HDAC1 IC50 / HDAC6 IC50) is reported as 3401 fold.
On to `Fc1cc(-c2nnc(C(F)F)o2)ccc1Cn1cc(-c2ccc(CN3CCOCC3)cc2)nn1` [Compound 4471, 4-(4-(1-(4-(5-(difluoromethyl)-1,3,4-oxadiazol-2-yl)-2-fluorobenzyl)-1H-1,2,3-triazol-4-yl)benzyl)morpholine], for which the IC50 in assay [1] (setting [3]) is above 50000 nM; in assay [2] (setting [4]), 44.8 nM. In assay [2] (HDAC1 IC50 / HDAC6 IC50), the “HDAC6 selectivity (fold)” value worked out at 1116 fold.
For `FC(F)c1nnc(-c2ccc(Cn3cc(C4CN(C5CCC5)C4)nn3)nc2)o1` [Compound 3954, 2-(6-((4-(1-cyclobutylazetidin-3-yl)-1H-1,2,3-triazol-1-yl)methyl)pyridin-3-yl)-5-(difluoromethyl)-1,3,4-oxadiazole], the IC50 is above 50000 nM in assay [1] (setting [3]) and 429 nM in assay [2] (setting [4]). The “HDAC6 selectivity (fold)” value in assay [2] (HDAC1 IC50 / HDAC6 IC50) was determined as 116 fold.
Regarding `COC(=O)N1CCC(c2cn(Cc3ccc(-c4nnc(C(F)F)o4)cn3)nn2)CC1` [Compound 3891, Methyl4-(1-((5-(5-(difluoromethyl)-1,3,4-oxadiazol-2-yl)pyridin-2-yl)methyl)-1H-1,2,3-triazol-4-yl)piperidin-1-carboxylate], the figures for the IC50 in assay [1] (setting [3]) and in assay [2] (setting [4]) were above 50000 nM and 174 nM, respectively. For the same compound, in assay [2] (HDAC1 IC50 / HDAC6 IC50), the “HDAC6 selectivity (fold)” value is given as 287 fold.
Taken in the same sequence, the figures for `CC(C)(F)CN1CCC(c2cccc(-c3cn(Cc4ccc(-c5nnc(C(F)F)o5)cc4F)nn3)c2)CC1` [Compound 4349, 2-(difluoromethyl)-5-(3-fluoro-4-((4-(3-(1-(2-fluoro-2-methylpropyl)piperidin-4-yl)phenyl)-1H-1,2,3-triazol-1-yl)methyl)phenyl)-1,3,4-oxadiazole] were above 50000 nM, 363 nM and 137 fold.
For the compound `Cc1ccncc1-c1cn(Cc2ccc(-c3nnc(C(F)F)o3)cn2)nn1` [Compound 4181, 2-(difluoromethyl)-5-(6-((4-(4-methylpyridin-3-yl)-1H-1,2,3-triazol-1-yl)methyl)pyridin-3-yl)-1,3,4-oxadiazole], the IC50 in assay [1] (setting [3]) was above 50000 nM; in assay [2] (setting [4]) it was 35.7 nM. In assay [2] (HDAC1 IC50 / HDAC6 IC50), the “HDAC6 selectivity (fold)” value amounted to 1400 fold.
In the case of `CCC(=O)N1CC(c2cn(Cc3ccc(-c4nnc(C(F)F)o4)cn3)nn2)C1` [Compound 3957, 1-(3-(1-((5-(5-(difluoromethyl)-1,3,4-oxadiazol-2-yl)pyridin-2-yl)methyl)-1H-1,2,3-triazol-4-yl)azetidin-1-yl)propan-1-one], the IC50 in assay [1] (setting [3]) is above 50000 nM; in assay [2] (setting [4]), 496 nM. Further, in assay [2] (HDAC1 IC50 / HDAC6 IC50), the “HDAC6 selectivity (fold)” value is 100 fold.
For `CCCCN1CC(c2cn(Cc3ccc(-c4nnc(C(F)F)o4)cn3)nn2)C1` [Compound 3953, 2-(6-((4-(1-butylazetidin-3-yl)-1H-1,2,3-triazol-1-yl)methyl)pyridin-3-yl)-5-(difluoromethyl)-1,3,4-oxadiazole], the IC50 in assay [1] (setting [3]) is above 50000 nM; in assay [2] (setting [4]) it was 498 nM. The “HDAC6 selectivity (fold)” value in assay [2] (HDAC1 IC50 / HDAC6 IC50) is 100 fold.
As to `FC(F)c1nnc(-c2ccc(Cn3cc(-c4ccc(-n5ccnc5)cc4)nn3)nc2)o1` [Compound 4284, 2-(6-((4-(4-(1H-imidazol-1-yl)phenyl)-1H-1,2,3-triazol-1-yl)methyl)pyridin-3-yl)-5-(difluoromethyl)-1,3,4-oxadiazole], the IC50 in assay [1] (setting [3]) was above 50000 nM; in assay [2] (setting [4]), 26.1 nM. In addition, the “HDAC6 selectivity (fold)” value in assay [2] (HDAC1 IC50 / HDAC6 IC50) stood at 1915 fold.
Turning to `CC(C)(C)OC(=O)N1CCCC(c2cn(Cc3ccc(-c4nnc(C(F)F)o4)cn3)nn2)C1` (stereo not drawn) [Compound 3961, Tert-butyl 3-(1-((5-(5-(difluoromethyl)-1,3,4-oxadiazol-2-yl)pyridin-2-yl)methyl)-1H-1,2,3-triazol-4-yl)piperidin-1-carboxylate], the values for the IC50 in assay [1] (setting [3]) and in assay [2] (setting [4]) were above 50000 nM and 129 nM, respectively. Moreover, the “HDAC6 selectivity (fold)” value in assay [2] (HDAC1 IC50 / HDAC6 IC50) amounted to 386 fold.
On to `CC(C)(C)OC(=O)N1CC(N2CCC(c3cccc(-c4cn(Cc5ncc(-c6nnc(C(F)F)o6)cc5F)nn4)c3)CC2)C1` [Compound 18872, tert-butyl 3-(4-(3-(1-((5-(5-(difluoromethyl)-1,3,4-oxadiazol-2-yl)-3-fluoropyridin-2-yl)methyl)-1H-1,2,3-triazol-4-yl)phenyl)piperidin-1-yl)azetidin-1-carboxylate], for which the results for the IC50 in assay [1] (setting [5]) and in assay [2] (setting [6]) were above 50000 nM and 299 nM, respectively. Moreover, in assay [2] (HDAC6 over HDAC1), the “HDAC6 selectivity (fold)” value amounted to 167 fold.
As to `CN1CCC(F)(c2cn(Cc3ccc(-c4nnc(C(F)F)o4)cn3)nn2)CC1` [Compound 4005, 2-(difluoromethyl)-5-(6-((4-(4-fluoro-1-methylpiperidin-4-yl)-1H-1,2,3-triazol-1-yl)methyl)pyridin-3-yl)-1,3,4-oxadiazole], the IC50 in assay [1] (setting [3]) was above 50000 nM; in assay [2] (setting [4]) it was 132 nM. In addition, in assay [2] (HDAC1 IC50 / HDAC6 IC50), the “HDAC6 selectivity (fold)” value is 379 fold.
As to `FC(F)c1nnc(-c2ccc(Cn3cc(C4(F)COC4)nn3)nc2)o1` [Compound 4280, 2-(difluoromethyl)-5-(6-((4-(3-fluorooxetan-3-yl)-1H-1,2,3-triazol-1-yl)methyl)pyridin-3-yl)-1,3,4-oxadiazole], the IC50 in assay [1] (setting [3]) is above 50000 nM; in assay [2] (setting [4]), 171 nM. Moreover, the “HDAC6 selectivity (fold)” value in assay [2] (HDAC1 IC50 / HDAC6 IC50) is recorded as 292 fold.
